Earlier results on two compounds are cited in patent publication US20230414697A1, “ENHANCED GINGEROLS FOR PATIENTS SUFFERING FROM NAUSEA AND EMESIS” (Aphios Corporation, priority 2020, published 2023).

The conditions of data set [1]: 2.0 gm oral ginger, 1.25 mg intravenous droperidol, placebo; 24 hour period following surgery.
For data set [2] the following is noted: ginger 0.5 gm or 1 gm, metochlopramide 10 mg.
The conditions of data set [3]: post-operative; reported by Bone and colleagues.

`O=C(CCCN1CC=C(n2c(=O)[nH]c3ccccc32)CC1)c1ccc(F)cc1` [droperidol]: the “differences in frequency or severity of post-operative nausea or frequency of post-operative vomiting” value in data set [1] is reported as “no differences”.

As to `CCN(CC)CCNC(=O)c1cc(Cl)c(N)cc1OC` [metochlopramide], the “frequency of emesis, differences between the three arms” value (ginger, metochlopramide, placebo, post-operative) was “no significant differences”. The patients nauseated entry (post operative, placebo 41%) is listed as “placebo, 27%”. For the same compound, in data set [2] (both studies), the “post-operative nausea vs placebo” value was “significantly more effective than placebo”. The “effectiveness for post-operative nausea, ginger compared with metochlopramide” value in data set [2] (women undergoing gynecologic surgery, two studies) is “equal effectiveness”. Further, in data set [3], the vomiting vs placebo result is on record as “less vomiting”.
